Measured values published in patent US20240425517A1, “NOVEL COMPOUND FOR DEGRADATION OF TARGET PROTEIN OR POLYPEPTIDE BY POLYUBIQUITINATION” (PRAZER THERAPEUTICS INC., priority 2021, published 2024).

Biological target: T1, BRD4 proteins (Homo sapiens, UniProt O60885)
T1 construct: endogenous in cells; host or cells: MM.1S
Test: Degradation of BRD4 protein in MM.1S cell lines (Western blot densitometry)
Type: cell-based
Details: MM.1S cells, 10 μM, 24 hours
Experimental: To confirm that the compounds (BRD4 degraders) of Preparation Examples I′ to IV′ reduce the amount of BRD4 proteins, experiments were performed using MM.1S cell lines, which are B cells derived from the blood of multiple myeloma patients.
Specifically, the MM.1S cells were cultured in RPMI-1640 medium supplemented with 10% fetal bovine serum and Penicillin/Streptomycin (100 U/mL), transferred to a 6-well plate, and after 24 hours, the BRD4 degraders were diluted in the culture medium and the cells were treated with 10 μM each. After treatment, the cells were incubated in a C02 incubator for 24 hours. Through protein immunoblotting (Western Blot), the degrading capacity of each compound against BRD4 proteins in cells was confirmed. After cell culture was completed according to the experimental conditions, the cells were collected and centrifuged at 1,800 rpm for 3 minutes. The cells in the precipitate were lysed with RIPA (25 mM Tris-HCl pH 7.6, 150 mM NaCl, 1% NP-40, 1% sodium deoxycholate, 0.1% SDS, 1× Protease Inhibitor Cocktail), 5× sample buffer was added, and then heated at 100° C. for 15 minutes. The prepared sample was electrophoresed with sodium dodecyl sulfate poly acrylamide gel electrophoresis (SDS-PAGE), and then the proteins in the gel were transferred to a PVDF membrane using Trans-Blot Turbo. The membrane was treated with a 5% bovine serum albumin (BSA) solution and blocked at room temperature for 2 hours, and then BRD4 and R-actin antibodies were diluted in the 5% BSA solution to react with the membrane at 4° C. overnight. After washed with PBST (0.5% Tween20) 5 times, horse radish peroxidase (HRP)-conjugated secondary antibodies were diluted in PBST to react at room temperature for 2 hours, and then washed again with a PBST solution 5 times. After enzyme-substrate reaction was carried out using a HRP substrate, a signal was measured with chemi-doc equipment, and the densitometry of a band corresponding to the BRD4 protein detected in the Preparation Example Compounds was quantitatively analyzed. The case when the degrading capacity of each BRD4 degrader was reduced by less than 40% is indicated as +, the case when the degrading capacity was reduced by 40% to 70% (exclusive of 70) is indicated as ++, the case when the degrading capacity was reduced by 70% or more is indicated as +++ in Tables 16 to 19 below. As shown in the following Tables, it was confirmed that the compounds of Preparation Examples I′ to IV′ according to the present invention have excellent degrading capacity.

SMILES	BRD4 degrading capacity (%)
Cc1sc2c(c1C)C(c1ccc(Cl)cc1)=N[C@@H](CC(=O)Nc1ccc(C#CCN)cc1)c1nnc(C)n1-2.Cl [1-1′, (S)—N-(4-(3-aminoprop-1-yn-1-yl)phenyl)-2-(4-(4-chlorophenyl)-2,3,9-trimethyl-6H-thieno[3,2-f][1,2,4]triazolo[4,3-a][1,4]diazepin-6-yl)acetamide hydrochloride]	++ (the degrading capacity was reduced by 40% to 70% (exclusive of 70))
Cc1sc2c(c1C)C(c1ccc(Cl)cc1)=N[C@@H](CC(=O)Nc1cccc(C#CCN)c1)c1nnc(C)n1-2.Cl [1-3′, (S)—N-(3-(3-aminoprop-1-yn-1-yl)phenyl)-2-(4-(4-chlorophenyl)-2,3,9-trimethyl-6H-thieno[3,2-f][1,2,4]triazolo[4,3-a][1,4]diazepin-6-yl)acetamide hydrochloride]	++ (the degrading capacity was reduced by 40% to 70% (exclusive of 70))
COC(=O)c1cc(NC(=O)C[C@@H]2N=C(c3ccc(Cl)cc3)c3c(sc(C)c3C)-n3c(C)nnc32)ccc1C#CCN.Cl [3-1′, methyl (S)-2-(3-aminoprop-1-yn-1-yl)-5-(2-(4-(4-chlorophenyl)-2,3,9-trimethyl-6H-thieno[3,2-f][1,2,4]triazolo[4,3-a][1,4]diazepin-6-yl)acetamido)benzoate hydrochloride]	+++ (the degrading capacity was reduced by 70% or more)
Cc1sc2c(c1C)C(c1ccc(Cl)cc1)=N[C@@H](CC(=O)Nc1ccc(C#CCN)c(C(=O)O)c1)c1nnc(C)n1-2.Cl [3-2′, (S)-2-(3-aminoprop-1-yn-1-yl)-5-(2-(4-(4-chlorophenyl)-2,3,9-trimethyl-6H-thieno[3,2-f][1,2,4]triazolo[4,3-a][1,4]diazepin-6-yl)acetamido)benzoic acid hydrochloride]	++ (the degrading capacity was reduced by 40% to 70% (exclusive of 70))
Cc1sc2c(c1C)C(c1ccc(Cl)cc1)=N[C@@H](CC(=O)Nc1ccc(C#CCN)c(CO)c1)c1nnc(C)n1-2.Cl [3-3′, (S)—N-(4-(3-aminoprop-1-yn-1-yl)-3-(hydroxymethyl)phenyl)-2-(4-(4-chlorophenyl)-2,3,9-trimethyl-6H-thieno[3,2-f][1,2,4]triazolo[4,3-a][1,4]diazepin-6-yl)acetamide hydrochloride]	+++ (the degrading capacity was reduced by 70% or more)
Cc1sc2c(c1C)C(c1ccc(Cl)cc1)=N[C@@H](CC(=O)Nc1ccc(C#CCN)c(COP(=O)(O)O)c1)c1nnc(C)n1-2 [3-8′, (S)-2-(3-aminoprop-1-yn-1-yl)-5-(2-(4-(4-chlorophenyl)-2,3,9-trimethyl-6H-thieno[3,2-f][1,2,4]triazolo[4,3-a][1,4]diazepin-6-yl)acetamido)benzyl dihydrogen phosphate trifluoroacetic acid]	+ (the degrading capacity of each BRD4 degrader was reduced by less than 40%)
COC(=O)c1ccc(NC(=O)C[C@@H]2N=C(c3ccc(Cl)cc3)c3c(sc(C)c3C)-n3c(C)nnc32)cc1C#CCN.Cl [3-25′, methyl (S)-2-(3-aminoprop-1-yn-1-yl)-4-(2-(4-(4-chlorophenyl)-2,3,9-trimethyl-6H-thieno[3,2-f][1,2,4]triazolo[4,3-a][1,4]diazepin-6-yl)acetamido)benzoate hydrochloride]	+++ (the degrading capacity was reduced by 70% or more)
Cc1sc2c(c1C)C(c1ccc(Cl)cc1)=N[C@@H](CC(=O)Nc1ccc(C(=O)O)c(C#CCN)c1)c1nnc(C)n1-2.Cl [3-26′, (S)-2-(3-aminoprop-1-yn-1-yl)-4-(2-(4-(4-chlorophenyl)-2,3,9-trimethyl-6H-thieno[3,2-f][1,2,4]triazolo[4,3-a][1,4]diazepin-6-yl)acetamido)benzoic acid hydrochloride]	++ (the degrading capacity was reduced by 40% to 70% (exclusive of 70))
Cc1sc2c(c1C)C(c1ccc(Cl)cc1)=N[C@@H](CC(=O)Nc1ccc(CO)c(C#CCN)c1)c1nnc(C)n1-2.Cl [3-27′, (S)—N-(3-(3-aminoprop-1-yn-1-yl)-4-(hydroxymethyl)phenyl)-2-(4-(4-chlorophenyl)-2,3,9-trimethyl-6H-thieno[3,2-f][1,2,4]triazolo[4,3-a][1,4]diazepin-6-yl)acetamide hydrochloride]	++ (the degrading capacity was reduced by 40% to 70% (exclusive of 70))
Cc1sc2c(c1C)C(c1ccc(Cl)cc1)=N[C@@H](CC(=O)Nc1ccc(C#CC(N)CO)cc1)c1nnc(C)n1-2.Cl (stereo partly drawn) [3-49′, N-(4-(3-amino-4-hydroxybut-1-yn-1-yl)phenyl)-2-((S)-4-(4-chlorophenyl)-2,3,9-trimethyl-6H-thieno[3,2-f][1,2,4]triazolo[4,3-a][1,4]diazepin-6-yl)acetamide hydrochloride]	++ (the degrading capacity was reduced by 40% to 70% (exclusive of 70))
Cc1sc2c(c1C)C(c1ccc(Cl)cc1)=N[C@@H](CC(=O)Nc1cccc(C#CC(N)CO)c1)c1nnc(C)n1-2.Cl (stereo partly drawn) [3-51′, N-(3-(3-amino-4-hydroxybut-1-yn-1-yl)phenyl)-2-((S)-4-(4-chlorophenyl)-2,3,9-trimethyl-6H-thieno[3,2-f][1,2,4]triazolo[4,3-a][1,4]diazepin-6-yl)acetamide hydrochloride]	+++ (the degrading capacity was reduced by 70% or more)
Cc1sc2c(c1C)C(c1ccc(Cl)cc1)=N[C@@H](CC(=O)Nc1ccc(C#CC(N)COP(=O)(O)O)cc1)c1nnc(C)n1-2 (stereo partly drawn) [3-57′, 2-amino-4-(4-(2-((S)-4-(4-chlorophenyl)-2,3,9-trimethyl-6H-thieno[3,2-f][1,2,4]triazolo[4,3-a][1,4]diazepin-6-yl)acetamido)phenyl)but-3-yn-1-yl dihydrogen phosphate trifluoroacetic acid]	++ (the degrading capacity was reduced by 40% to 70% (exclusive of 70))
Cc1sc2c(c1C)C(c1ccc(Cl)cc1)=N[C@@H](CC(=O)NCC#Cc1ccc(C#CCN)o1)c1nnc(C)n1-2.Cl [4-1′, (S)—N-(3-(5-(3-aminoprop-1-yn-1-yl)furan-2-yl)prop-2-yn-1-yl)-2-(4-(4-chlorophenyl)-2,3,9-trimethyl-6H-thieno[3,2-f][1,2,4]triazolo[4,3-a][1,4]diazepin-6-yl)acetamide hydrochloride]	++ (the degrading capacity was reduced by 40% to 70% (exclusive of 70))
COC(=O)c1cc(N2CCN(C(=O)C[C@@H]3N=C(c4ccc(Cl)cc4)c4c(sc(C)c4C)-n4c(C)nnc43)CC2)ccc1C#CCN.Cl [4-2′, methyl (S)-2-(3-aminoprop-1-yn-1-yl)-5-(4-(2-(4-(4-chlorophenyl)-2,3,9-trimethyl-6H-thieno[3,2-f][1,2,4]triazolo[4,3-a][1,4]diazepin-6-yl)acetyl)piperazin-1-yl)benzoate hydrochloride]	+++ (the degrading capacity was reduced by 70% or more)
Cc1sc2c(c1C)C(c1ccc(Cl)cc1)=N[C@@H](CC(=O)NCC#Cc1ccc(C#CCN)s1)c1nnc(C)n1-2.Cl [4-10′, (S)—N-(3-(5-(3-aminoprop-1-yn-1-yl)thiophen-2-yl)prop-2-yn-1-yl)-2-(4-(4-chlorophenyl)-2,3,9-trimethyl-6H-thieno[3,2-f][1,2,4]triazolo[4,3-a][1,4]diazepin-6-yl)acetamide hydrochloride]	+++ (the degrading capacity was reduced by 70% or more)
Cc1sc2c(c1C)C(c1ccc(Cl)cc1)=N[C@@H](CC(=O)NCCC(=O)Nc1ccc(C#CCN)cc1)c1nnc(C)n1-2.Cl [4-124′, (S)—N-(4-(3-aminoprop-1-yn-1-yl)phenyl)-3-(2-(4-(4-chlorophenyl)-2,3,9-trimethyl-6H-thieno[3,2-f][1,2,4]triazolo[4,3-a][1,4]diazepin-6-yl)acetamido)propanamide hydrochloride]	+++ (the degrading capacity was reduced by 70% or more)
Cc1sc2c(c1C)C(c1ccc(Cl)cc1)=N[C@@H](CC(=O)NCCC(=O)Nc1ccc(C#CCN)c(CO)c1)c1nnc(C)n1-2.Cl [4-125′, (S)—N-(4-(3-aminoprop-1-yn-1-yl)-3-(hydroxymethyl)phenyl)-3-(2-(4-(4-chlorophenyl)-2,3,9-trimethyl-6H-thieno[3,2-f][1,2,4]triazolo[4,3-a][1,4]diazepin-6-yl)acetamido)propanamide hydrochloride]	+++ (the degrading capacity was reduced by 70% or more)
